Measurements from US20250026748A1, “N-(5-SUBSTITUTED-[(1,3,4-THIADIAZOLYL) OR (THIAZOLYL)])(SUBSTITUTED)CARBOXAMIDE COMPOUNDS AND USE THEREOF FOR INHIBITING HUMAN POLYMERASE THETA” (Repare Therapeutics Inc., priority 2021, published 2025).

Each molecule was assayed against PolQ ATPase enzyme (1-894) (Homo sapiens (Human), UniProt O75417) (assay: Polθ ATPase enzymatic assay (0.5 nM enzyme concentration), ADP-Glo). Conditions: average IC50; 0.5 nM PolQ ATPase enzyme (1-894).
Assay type: biochemical
Outline: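 Enzyme (0.5 nM) pre-incubated 15 min at rt with 10-point inhibitor series in 50 mM Tris pH 7.5, 10% glycerol, 5 mM DTT, 10 mM MgCl2, 0.1 mg/ml BSA; reaction started with 20 nM fork DNA and 100 μM ATP, run 180 min at rt. ADP-Glo luminescence; IC50 from 4-parameter variable-slope fit.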

PolQ ATPase enzyme (1-894), sequence (O75417 1-894): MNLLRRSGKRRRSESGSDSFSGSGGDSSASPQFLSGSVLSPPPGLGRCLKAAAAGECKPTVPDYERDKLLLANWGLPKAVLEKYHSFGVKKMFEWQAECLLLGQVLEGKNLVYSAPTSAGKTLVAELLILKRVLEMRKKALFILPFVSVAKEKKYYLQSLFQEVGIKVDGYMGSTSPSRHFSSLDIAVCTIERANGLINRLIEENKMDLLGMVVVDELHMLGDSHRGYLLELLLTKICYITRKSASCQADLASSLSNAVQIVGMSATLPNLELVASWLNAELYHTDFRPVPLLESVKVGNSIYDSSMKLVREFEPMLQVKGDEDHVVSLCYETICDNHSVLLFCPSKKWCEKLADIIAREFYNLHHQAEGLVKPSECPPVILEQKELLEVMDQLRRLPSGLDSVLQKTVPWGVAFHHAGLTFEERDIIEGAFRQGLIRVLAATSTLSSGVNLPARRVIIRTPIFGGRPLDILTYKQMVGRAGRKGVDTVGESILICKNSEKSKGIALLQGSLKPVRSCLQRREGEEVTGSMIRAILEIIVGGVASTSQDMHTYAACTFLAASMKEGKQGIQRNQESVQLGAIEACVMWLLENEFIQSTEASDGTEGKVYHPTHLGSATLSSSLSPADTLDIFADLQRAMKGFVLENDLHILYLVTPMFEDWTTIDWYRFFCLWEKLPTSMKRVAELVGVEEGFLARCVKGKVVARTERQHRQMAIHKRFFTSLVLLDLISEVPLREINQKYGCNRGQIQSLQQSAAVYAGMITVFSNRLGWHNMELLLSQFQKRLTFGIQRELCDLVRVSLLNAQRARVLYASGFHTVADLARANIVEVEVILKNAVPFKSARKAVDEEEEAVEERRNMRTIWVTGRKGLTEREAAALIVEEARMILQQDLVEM

| IC50 | SMILES |
| --- | --- |
| 4.3 nM | COc1cnc(C(F)F)cc1-c1cc(N2CCCC2=O)ncc1C(=O)Nc1nnc(C#CC2CC2)s1 [Compound 285] |
| 21 nM | COc1cnc(C(F)F)cc1-c1cc(N(C)C)ncc1C(=O)Nc1nnc(C#CC2CC2)s1 [Compound 286] |
| 0.93 nM | COc1cnc(Cl)cc1-c1cnccc1C(=O)Nc1nnc([C@@H]2C[C@H]2c2ccc(C#N)c(C)c2)s1 [Compound 287] |
| < 0.25 nM | COc1cnc(Cl)cc1-c1cc(C#CC2(O)CCS(=O)(=O)CC2)ccc1C(=O)Nc1nnc(C#CC2CC2)s1 [Compound 288] |
| 0.88 nM | COc1cnc(C(F)F)cc1-c1cc(Cl)ncc1C(=O)Nc1ncc(C#CC2CC2)s1 [Compound 289] |
| 7.3 nM | COc1ccc(C(F)(F)F)cc1-c1cc(N2CCCC2=O)ncc1C(=O)Nc1nnc(C#CC2CC2)s1 [Compound 290] |
| 0.35 nM | COc1cnc(C(F)F)cc1-c1cc(Cl)ncc1C(=O)Nc1nnc(C#CC2CC2)s1 [Compound 291] |
| < 0.25 nM | COc1ccc(C(F)F)cc1-c1cc(C(=O)N(C)C)ncc1C(=O)Nc1nnc(C#CC2CC2)s1 [Compound 293] |
| 0.29 nM | COc1cnc(Cl)cc1-c1cc(N(C)C(C)=O)ccc1C(=O)Nc1nnc(C#CC2CC2)s1 [Compound 294] |
| 2.7 nM | COc1cnc(Cl)cc1-c1cc(N2CCN(C)C2=O)ccc1C(=O)Nc1nnc(C#CC2CC2)s1 [Compound 295] |
| 1.6 nM | COc1ccc(C(F)(F)F)cc1-c1cc(-c2cnn(C)c2)ncc1C(=O)Nc1nnc(C#CC2CC2)s1 [Compound 296] |
| 0.69 nM | COc1ccc(C(F)(F)F)cc1-c1cc(C2CCN(C)C2=O)ncc1C(=O)Nc1nnc(C#CC2CC2)s1 (centres unmarked) [Compound 297] |
| 0.8 nM | COc1cnc(Cl)cc1-c1cc(-c2n[nH]cc2C)ccc1C(=O)Nc1nnc(C#CC2CC2)s1 [Compound 298] |
| 0.6 nM | Cc1cnc(Cl)cc1-c1cnccc1C(=O)Nc1nnc(C#CC2CC2)s1 [Compound 299] |
| 0.5 nM | COc1cnc(Cl)cc1-c1cc(-c2cn(C)nn2)ccc1C(=O)Nc1nnc(C#CC2CC2)s1 [Compound 300] |
| < 0.25 nM | COc1cnc(C(F)F)cc1-c1cc(Oc2nccs2)ccc1C(=O)Nc1nnc(C#CC2CC2)s1 [Compound 301] |
| 0.35 nM | COc1cnc(Cl)cc1-c1cc(Oc2nccs2)ccc1C(=O)Nc1nnc(C#CC2CC2)s1 [Compound 302] |
| 1.1 nM | COc1cnc(C(F)F)cc1-c1cnccc1C(=O)Nc1nnc([C@@H]2C[C@H]2c2ccc(C#N)cc2)s1 [Compound 303] |
| 13 nM | COc1cnc(Cl)cc1-c1cnccc1C(=O)Nc1nnc(C2C[C@H]2c2ccc(C#N)cc2OC)s1 (some centres unmarked) [Compound 304] |
| 0.56 nM | COc1ccc(C(F)(F)F)cc1-c1cnccc1C(=O)Nc1nnc(C#CC2CC2(C)C)s1 (centres unmarked) [Compound 306] |
| 4.4 nM | COc1cnc(Cl)cc1-c1cc(CS(C)(=O)=O)ccc1C(=O)Nc1nnc(C#CC2CC2)s1 [Compound 310] |
| 8.1 nM | COc1cnc(Cl)cc1-c1cc(N2CCCS2(=O)=O)ccc1C(=O)Nc1nnc(C#CC2CC2)s1 [Compound 311] |
| 0.94 nM | COc1cnc(Cl)cc1-c1cc(-c2cn[nH]c2)ccc1C(=O)Nc1nnc(C#CC2CC2)s1 [Compound 312] |

| IC50 | SMILES |
| --- | --- |
| 0.87 nM | COc1cnc(C(F)F)cc1-c1cc(C#N)ncc1C(=O)Nc1nnc(C#CC2CC2)s1 [Compound 313] |
| 0.49 nM | COc1cnc(Cl)cc1-c1cn2cc(C(=O)N(C)C)nc2cc1C(=O)Nc1nnc(C#CC2CC2)s1 [Compound 314] |
| 4.5 nM | COc1cnc(C(F)F)cc1-c1cn2cc(C(=O)N(C)C)nc2cc1C(=O)Nc1nnc(C#CC2CC2)s1 [Compound 315] |
| 1.6 nM | COc1cnc(C(F)F)cc1-c1ccncc1C(=O)Nc1nnc(C#CC2CC2)s1 [Compound 316] |
| < 0.25 nM | CN(C)C(=O)Cn1cc(-c2cc(C(F)F)ccc2Cl)c(C(=O)Nc2nnc(C#CC3CC3)s2)cc1=O [Compound 317] |
| 4.8 nM | COc1cnc(Cl)cc1-c1cnccc1C(=O)Nc1nnc(C2C[C@H]2c2ccc(C#N)nc2)s1 (some centres unmarked) [Compound 318] |
| < 0.25 nM | Cn1cc(-c2cc(Cl)ncc2OC(F)F)c(C(=O)Nc2nnc(C#CC3CC34CC4)s2)cc1=O (centres unmarked) [Compound 320] |
| 0.41 nM | COc1ccc(C(F)F)cc1-c1cc(C#N)ncc1C(=O)Nc1nnc(C#CC2CC2)s1 [Compound 321] |
| 1.9 nM | COc1cnc(C(F)F)cc1-c1cn(C)c(=O)cc1C(=O)Nc1nnc(C2C[C@H]2c2ccc(C#N)cc2)s1 (some centres unmarked) [Compound 322] |
| 4.5 nM | C#C[C@@H]1CC1c1nnc(NC(=O)c2ccncc2-c2cc(C(F)F)ncc2OC)s1 (some centres unmarked) [Compound 323] |
| 0.4 nM | COc1ccc(C(F)F)cc1-c1cn2cc(C(=O)N(C)C)nc2cc1C(=O)Nc1nnc(C#CC2CC2)s1 [Compound 324] |
| < 0.25 nM | COc1cc(N2CCOCC2)c(C(F)(F)F)cc1-c1cnccc1C(=O)Nc1nnc(C#CC2CC2)s1 [Compound 325] |
| 4.1 nM | COc1cnc(Cl)cc1-c1cncc(F)c1C(=O)Nc1nnc(C#CC2CC2)s1 [Compound 327] |
| 3.1 nM | COc1ccc(C(F)F)cc1-c1cn2ncnc2cc1C(=O)Nc1nnc(C#CC2CC2)s1 [Compound 328] |
| 4.1 nM | COc1ccc(C(F)(F)F)nc1-c1cnccc1C(=O)Nc1nnc(C#CC2CC2)s1 [Compound 329] |
| 24 nM | Cc1nc(Cn2cc(-c3cc(C(F)(F)F)ccc3Cl)c(C(=O)Nc3nnc(C#CC4CC4)s3)cc2=O)cs1 [Compound 331] |
| 15 nM | COc1cnc(Cl)cc1-c1cn(Cc2csc(C)n2)c(=O)cc1C(=O)Nc1nnc(C#CC2CC2)s1 [Compound 332] |
| 3.8 nM | COc1cnc(Cl)cc1-c1cn(Cc2nccs2)c(=O)cc1C(=O)Nc1nnc(C#CC2CC2)s1 [Compound 333] |
| 4.3 nM | COc1cnc(Cl)nc1-c1cn(C)c(=O)cc1C(=O)Nc1nnc(C#CC2CC2)s1 [Compound 335] |
| 33 nM | COc1ccc(C(F)(F)F)cc1-c1cn(C)c(=O)cc1C(=O)Nc1nnc(C#CC2CCCOC2)s1 (centres unmarked) [Compound 336] |
| 9.2 nM | COc1ccc(C(F)(F)F)cc1-c1cn(C)c(=O)cc1C(=O)Nc1nnc(C#CC2CCOCC2)s1 [Compound 337] |
| 4.7 nM | COc1cnc(C(F)(F)F)nc1-c1cnccc1C(=O)Nc1nnc(C#CC2CC2)s1 [Compound 338] |
| 3.4 nM | COc1ccc(Cl)nc1-c1cnccc1C(=O)Nc1nnc(C#CC2CC2)s1 [Compound 339] |

| IC50 | SMILES |
| --- | --- |
| 3.2 nM | COc1cnc(Cl)cc1-c1cn2c(C#N)cnc2cc1C(=O)Nc1nnc(C#CC2CC2)s1 [Compound 341] |
| 13 nM | COc1cnc(Cl)cc1-c1cn2c(C(N)=O)cnc2cc1C(=O)Nc1nnc(C#CC2CC2)s1 [Compound 342] |
| 8.4 nM | COc1ccc(C(F)(F)F)cc1-c1cn(C)c(=O)cc1C(=O)Nc1nnc(C#CC2COC2)s1 [Compound 343] |
| 4.3 nM | COc1ncc(Cl)cc1-c1cnccc1C(=O)Nc1nnc(C#CC2CC2)s1 [Compound 344] |
| 3.7 nM | COc1ccc(C(F)(F)F)cc1-c1cn2ncnc2cc1C(=O)Nc1nnc(C#CC2CC2)s1 [Compound 345] |
| 3.4 nM | COc1cnc(Cl)cc1-c1cn(CC(=O)N2CCOCC2)c(=O)cc1C(=O)Nc1nnc(C#CC2CC2)s1 [Compound 347] |
| < 0.25 nM | COc1cnc(C(F)F)cc1-c1cc(-c2cnn(C(F)F)c2)ncc1C(=O)Nc1nnc(C#CC2CC2)s1 [Compound 349] |
| < 0.25 nM | COc1cnc(C(F)F)cc1-c1cc(-c2ccn(C(F)F)n2)ncc1C(=O)Nc1nnc(C#CC2CC2)s1 [Compound 350] |
| < 0.25 nM | COc1cnc(C(F)F)cc1-c1cc(-c2nn(C)cc2C)ncc1C(=O)Nc1nnc(C#CC2CC2)s1 [Compound 351] |
| < 0.25 nM | COc1cnc(C(F)F)cc1-c1cc(N2CCCC(F)C2=O)ncc1C(=O)Nc1nnc(C#CC2CC2)s1 (centres unmarked) [Compound 352] |
| 0.49 nM | COc1cnc(C(F)F)cc1-c1cc(N2CCC(C)(C)CC2=O)ncc1C(=O)Nc1nnc(C#CC2CC2)s1 [Compound 353] |
| 0.27 nM | COc1cnc(C(F)F)cc1-c1cc(-c2nnc(C)o2)ncc1C(=O)Nc1nnc(C#CC2CC2)s1 [Compound 354] |
| 0.3 nM | COc1cnc(C(F)F)cc1-c1cc(-c2cnn(C3CCOCC3)c2)ncc1C(=O)Nc1nnc(C#CC2CC2)s1 [Compound 355] |
| < 0.25 nM | COc1cnc(C(F)F)cc1-c1cc(N2CCn3cncc3C2=O)ncc1C(=O)Nc1nnc(C#CC2CC2)s1 [Compound 356] |
| < 0.25 nM | COc1cnc(C(F)F)cc1-c1cc(N2CCN(C(C)=O)CC2=O)ncc1C(=O)Nc1nnc(C#CC2CC2)s1 [Compound 357] |
| < 0.25 nM | COC(=O)N1CCN(c2cc(-c3cc(C(F)F)ncc3OC)c(C(=O)Nc3nnc(C#CC4CC4)s3)cn2)C(=O)C1 [Compound 358] |
| 1.7 nM | COc1cnc(C(F)F)cc1-c1cc(N2CC3(COC3)CC2=O)ncc1C(=O)Nc1nnc(C#CC2CC2)s1 [Compound 359] |
| 7.2 nM | COc1cnc(C(F)F)cc1-c1cc(N2CC3(CCOCC3)CC2=O)ncc1C(=O)Nc1nnc(C#CC2CC2)s1 [Compound 360] |
| 1.9 nM | COc1cnc(C(F)F)cc1-c1cc(C2C[C@@H]2C(=O)N(C)C)ncc1C(=O)Nc1nnc(C#CC2CC2)s1 (some centres unmarked) [Compound 361] |
| 1.4 nM | COc1cnc(C(F)F)cc1-c1cc(C2C[C@@H]2C(=O)N(C)C)ccc1C(=O)Nc1nnc(C#CC2CC2)s1 (some centres unmarked) [Compound 362] |
| < 0.25 nM | COc1cnc(C(F)F)cc1-c1cc(C2C[C@H]2C(=O)N(C)C)ccc1C(=O)Nc1nnc(C#CC2CC2)s1 (some centres unmarked) [Compound 363] |
| 0.559 nM | COc1cnc(C(F)F)cc1-c1cc(N2CCNCC2=O)ncc1C(=O)Nc1nnc(C#CC2CC2)s1 [Compound 364] |

| SMILES | IC50 |
| --- | --- |
| COc1cnc(Cl)cc1-c1cc(-c2ccn(C)n2)ccc1C(=O)Nc1nnc(C#CC2CC2)s1 [Compound 307] | < 0.25 nM |
| COc1ccc(C(F)(F)F)cc1-c1cc(-c2ccn(C)n2)ncc1C(=O)Nc1nnc(C#CC2CC2)s1 [Compound 308] | 0.42 nM |
| COc1ccc(C(F)(F)F)cc1-c1cc(-c2ccn(C)n2)ncc1C(=O)Nc1nnc(C#CC2CC2)s1 [Compound 309] | 0.99 nM |
